According to patent US20040167226A1, “Methods for the treatment of pain and traumatic injury using benzamides and compositions containing the same” (priority 2002, published 2004):

Experiments:
[1] = Brain-blood distribution of Compound A in the mouse; type: in vivo; conditions: brain / whole blood, single po dose 30 mg/kg, n = 5, read-out: Brain/Blood Ratio (Mean ± SD)
Experimental: Blood-brain distribution of Compound A was assessed in the mouse, rat, and squirrel monkey by determining the concentrations of Compound A in blood and brain tissue at specific times post dose. Rats and mice received a single po dose of 30 mg/kg. The monkeys received a twice-daily 10 mg/kg po dose of Compound A for a total of 5 weeks prior to sacrifice. Brain to blood ratios for Compound A, as shown below in Table 4, show high penetration of the blood-brain barrier.

[2] = tested on: Taxol-induced mechanical allodynia; experiment: Taxol-induced neuropathic pain rat model, 50% paw withdrawal threshold (up-down method); type: in vivo, Sprague-Dawley rats; conditions: rats
Source text: Sprague-Dawley male rats with 150-160 grams of body weight were used in the studies presented herein. Rats were trained in the enclosure one hour per day in the morning for a one week period prior to obtaining the baseline response. Whereas the mouse studies assessed percentage of response, the rat studies determined 50% of the paw withdrawal threshold, also called the up-down method as developed by Chung and colleagues. In order to obtain consistent data, naïve rats with paw withdrawal threshold no less than 4 grams were included for further studies. Taxol at a dose of 1 mg/kg (body weight) was administered daily to rats intraperitoneally. As observed in mice, the rats treated with Taxol daily developed stable mechanical allodynia on day 9 and thereafter. On day 13 and day 14 of Taxol induction, the rats pain behavior in term of 50% of paw withdrawal threshold was measured. Only those rats with paw withdrawal threshold measurements no greater than 7 grams for two consecutive days were included for drug testing. Generally speaking, the mechanical allodynia in Taxol treated rats fell in the range of 1-4 gram of paw withdrawal threshold.
1 ml per kg of body weight of either 50 mg/ml or 20 mg/ml of Compound A was administered to rats via oral gavage feeding (p.o.), to yield a dose of either 50 mg/Kg (body weight) or 20 mg/Kg (body weight). The same corresponding volume of 1% methylcellulose was used as vehicle control. 34 male Sprague-Dawely rats were employed for the study. The baseline paw withdrawal threshold (grams of force applied to the plantar area of the right hind paw) and neuropathic pain induction with daily intraperitoneal administration of 1 mg/kg (body weight) was performed as indicated in the previous section. The Taxol treatment was continued for 15 days until the pain threshold remained relatively stable. Animals with baseline greater than 4 grams and with threshold […] post induction were included in the drug testing. 27 rats met the criteria for the next step studies and were randomly assigned into four groups. Group 1 consisting of 7 rats was given 1% methylcellulose as vehicle control group, 1 ml of vehicle per kilograms of body weight was administered to animal via p.o.; group 2 with 6 animals was dosed at 20 mg/kg (body weight) of Compound A via oral gavage feeding (p.o.); group 3 with 7 rats was dosed at 50 mg/kg of Compound A, and the fourth group with 7 rats received Gabapentine at 50 mg/kg via p.o. in the same vehicle as a positive control group. Those rats were habituated in the enclosure and 50% of paw withdrawal thresholds (grams of force) were measured using a set of von Frey filaments, as described in the previous section, at time points of 1, 2, 3, 6, and 24 hours postdosing in a blinded fashion. The tester had no knowledge of which animals received drug or vehicle. It was noted that rats tested were very sleepy in the late afternoon (for 6 hour postdosing measurement), thus the data would not be reliable for 6-hour postdosing time points. […] After finishing the 24 hour postdosing measurement, the paw withdrawal threshold of each animal was calculated and data was analyzed.

[3] = 20 mg/kg p.o. in 1% methylcellulose

CC(=O)Nc1ccc(C(=O)NC(C)(C)C)cc1 [Compound A, N-tert-butyl-4-acetamidobenzamide]
Kp at 0.5 h ([1]; 0.5 h post-dose): 0.79 ± 0.05 | Kp at 1 h ([1]; 1.0 h post-dose): 0.8 ± 0.05 | Kp at 2 h ([1]; 2.0 h post-dose): 0.76 ± 0.06 | analgesic effect on neuropathic pain (in words) [2, 3]: has an analgesic effect | onset of analgesic effect [2, 3]: fast onset (one-hour postdosing) | time of peak analgesic effect postdosing [2, 3]: 2 h | paw withdrawal threshold ([2]; 20 mg/kg p.o. in 1% methylcellulose, vehicle about 4 grams): greater than 7 grams | pain blocking effect (in words) ([2]; 50 mg/kg p.o. in 1% methylcellulose): showed a pain blocking effect at 1 hour postdosing, with the effect diminished later on | analgesic effect compared with positive control ([2]; Compound A 20 mg/kg p.o. vs Gabapentine 50 mg/kg p.o.): comparable to the positive control
